This passage reports Kd and IC50 results from PMC3538687, “Detection of Cyclic Diguanylate G-Octaplex Assembly and Interaction with Proteins” (PLoS ONE, 2013).

The target of assay [1] is T1, HIV-1 reverse transcriptase (HIV RT) (HIV-1 M:B_HXB2R, UniProt P04585).
T1 construct: gene gag-pol; purchased from Worthington; mature RT cut from Gag-Pol polyprotein; with p51 RT
The assay can be described thus: DRaCALA direct binding, protein titration. To be noted: labelled compound (32P), 500 nM; K+ buffer pH 7.9, room temperature; concentration given as cdiGMP monomers; octaplex only, cdiGMP M/D does not bind; primer-template site.

Assay [2] deals with T1, HIV-1 reverse transcriptase (HIV RT). The assay can be described thus: primer extension, […] min. It counts as biochemical. The following applies: 80 mM KCl, 6 mM MgCl2, 100 µM dNTPs, pH 8; G8 prepared in K+; concentration given as cdiGMP monomers; octaplex only, M/D shows no inhibition.

What is called Kd is the equilibrium constant for the complex coming apart. Low readings indicate tighter binding, high ones weaker binding. The IC50 is the concentration at which inhibition is half-maximal. A low value points to greater potency in that assay. For cdiGMP G8, binding in assay [1] was characterised by a dissociation constant (Kd) of 0.7 ± 0.1 µM. It took 28 ± 7 µM to reach half-maximal inhibition in assay [2] (IC50).
